The values below come from patent EP4620955A1, “MC4R ANTAGONIST COMPOUND, PHARMACEUTICAL COMPOSITION AND PHARMACEUTICAL USE THEREOF” (Changchun Genescience Pharmaceutical Co., Ltd., priority 2022, dated 2024).

In one series the target is T1, MC4R (Homo sapiens, UniProt P32245).
T1 construct: expressed in transfected cells; host or cells: flipin-293-MC4 (Flp-In 293 host, hygromycin selection)
Put plainly: Assay of MC4R antagonist activity in cells in vitro (cAMP assay, Melanotan I stimulation). The following applies: flipin-293-MC4 cell line, Melanotan I as agonist. The format is cell-based. The protocol: Test Example 1: Assay of MC4R antagonist activity in cells in vitro
a. Experimental consumables:
b. Experimental steps • ✔ Cell line: flipin-293-MC4 • ✔ Cell culture medium: DMEM, 10% fetal bovine serum, 1 × PS, 200 µg/mL hygromycin • ✔ Experimental buffer: HBSS, 20 mM HEPES, 0.1% BSA, 500 µM IBMX • ✔ Positive compound: ML00253764 c. Antagonist detection • 1. Digested cells were suspended in the experimental buffer, and then inoculated into the 384-well cell culture plate. • 2. The to-be-detected compound was added to the cell plate, and incubated at 37°C for 10 min. • 3. Melanotan I was added to the cell plate, and incubated at 37°C for 30 min. • 4. Two detection reagents EU cAMP tracer and ulight anti camp were thawed and diluted with a lysis solution in the kit. • 5. The diluted detection reagents were added to the cell plate and incubated at room temperature for 1 h. • 6. Reading was carried out by Envision. (Excitation light: 340 nm, emission light: 615 nm and 665 nm) d. Data analysis • 1. %Inhibition calculation: %Inhibition = (Signalcmpd−SignalAve_VC)/(SignalAve_PC−SignalAve_VC) × 100. [formula] • Signalcmpd: compound signal value; • SignalAve_VC: negative control signal value; • SignalAve_PC: positive control signal value; • %inhibition: inhibition percentage. • 2. Calculation of IC50 of the compound using the nonlinear fitting equation in GraphPad: Y = Bottom + (Top−Bottom)/(1+10^(∧)((LogIC50−X)×HillSlope)) [formula] X: logarithmic value of the concentration of the compound; Y: inhibition percentage

Series [1] in a line: Pharmacokinetic study on the tested compound in SD male rats. The format is in vivo. The following applies: IV 1 mpk/PO 2 mpk; for AUC / Cmax / clearance / half-life: Sprague-Dawley (SD), rat, plasma. The protocol:
On the day of administration, the tested compound was prepared with 5% DMSO + 5% Solutol + 90% Saline as a solvent into a solution for administration for use.
The solution for administration was administered to an intravenous injection IV group at a dose of 1 mg/kg in a concentration of 0.2 mg/mL. The solution for administration was administered to an oral gavage PO group at a dose of 2 mg/kg in a concentration of 0.2 mg/mL. The animals in the PO group were required to fast overnight in advance, drink water freely, and be fed 4 hours after administration. The IV group was not required to fast.
The animals were weighed before administration. On the day of administration, the solution was IV/PO-administered once in an administration amount calculated based on the weight. In the IV group, blood was collected from veins at 0.083 h, 0.25 h, 0.5 h, 1.0 h, 2.0 h, 4.0 h, 8.0 h, and 24 h after administration. In the PO group, blood was collected from veins at 0.25 h, 0.5 h, 1.0 h, 2.0 h, 4.0 h, 6.0 h, 8.0 h, and 24 h after administration. The amount of blood collected was about 0.20 mL. K2-EDTA was used in blood collection tubes as an anticoagulant. The collected blood sample was centrifuged (centrifugation conditions: 6800 g, 6 min, 2°C to 8°C) within 1 h to obtain plasma. The to-be-tested sample was stored in a refrigerator at -80°C before analysis.
The concentration of the tested compound in the plasma of the SD male rats was detected by the validated LC-MS/MS method.

T1 sequence (P32245 whole entry): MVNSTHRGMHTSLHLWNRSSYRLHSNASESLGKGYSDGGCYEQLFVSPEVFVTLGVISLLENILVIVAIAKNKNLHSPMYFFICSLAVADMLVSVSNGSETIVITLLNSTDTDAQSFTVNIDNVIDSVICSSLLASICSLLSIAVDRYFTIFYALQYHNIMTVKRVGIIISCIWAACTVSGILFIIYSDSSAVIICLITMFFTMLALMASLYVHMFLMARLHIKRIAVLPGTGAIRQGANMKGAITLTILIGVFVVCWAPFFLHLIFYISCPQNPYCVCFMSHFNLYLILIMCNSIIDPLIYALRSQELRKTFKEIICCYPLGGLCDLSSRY

On to `COc1cc([C@@H](C)C(=O)N2CC[C@H](Nc3ccc(-c4ncccn4)c(C)n3)C2)c(F)cn1` [Compound 001-1, (R)-2-(5-fluoro-2-methoxypyridine-4-yl)-1-((S)-3-((6-methyl-5-(pyrimidine-2-yl)pyridine-2-yl)amino)pyrrolidine-1-yl)propan-1-one], for which the IC50 – broadly, the concentration that gives 50% inhibition – on MC4R was 3.95 nM. Besides, in series [1], the F came to 86.8%; the AUC – broadly, concentration integrated over time – is 442 ng·h/mL; the concentration peaked (Cmax) at 338 ng/mL; the clearance amounted to 65.3 mL/min/kg. The half-life (usually the time needed for the level to fall by half in the phase considered) in series [1] is 42.6 min.

Turning to `COc1cc([C@@H](C)C(=O)N2C[C@H](C)[C@H](Nc3ccc(-c4ncccn4)c(C)n3)C2)c(F)cn1` [Compound 051-1, (R)-2-(5-fluoro-2-methoxypyridine-4-yl)-1-((3 S,4S)-3-methyl-4-(6-methyl-5-(pyrimidine-2-yl)pyridine-2-yl-amino)pyrrolidine-1-yl)propane-1-one], the IC50 at MC4R is 2.96 nM. In series [1], the F is 52.7%, the AUC came to 317 ng·h/mL, the concentration peaked (Cmax) at 329 ng/mL and the clearance amounted to 55.2 mL/min/kg. Moreover, the half-life in series [1] is 15 min.

At MC4R, `COc1cc([C@@H](C)C(=O)N2C[C@@H](Nc3ccc(-c4ncccn4)c(C)n3)C3(CC3)C2)c(F)cn1` [Compound 056-1, (2R)-2-(5-fluoro-2-methoxypyridine-4-yl)-1-[(7S)-7-{[6-methyl-5-(pyrimidine-2-yl)pyridine-2-yl]amino}-5-azaspiro[2.4]heptane-5-yl]propan-1-one] registered a half-inhibitory concentration (IC50) of 4.23 nM. In addition, in series [1], the F is on record as 61.5%; the AUC was 566 ng·h/mL; the Cmax (in general, the highest concentration seen after dosing) was found to be 380 ng/mL; the clearance is 35.8 mL/min/kg. Also, in series [1], the half-life is 53.4 min.

In the case of `COc1cc([C@@H](C)C(=O)N2C[C@@H](Nc3ccc(-c4cc(C#N)ccn4)c(C)n3)C3(CC3)C2)c(Cl)cn1` [Compound 168, 6'-(((S)-5-((R)-2-(5-chloro-2-methoxypyridine-4-yl)propionyl)-5-azaspiro[2.4]hept-7-yl)amino)-2'-methyl-[2,3'-bipyridyl]-4-carbonitrile], the IC50 on MC4R turned out to be 3.68 nM.

For `COc1cc([C@@H](C)C(=O)N2C[C@@H](Nc3ccc(-c4cn(C)c(C(C)(C)O)n4)c(C)n3)C3(CC3)C2)c(F)cn1` [Compound 181, (R)-2-(5-fluoro-2-methoxypyridine-4-yl)-1-((S)-7-((5-(2-(2-hydroxypropan-2-yl)-1-methyl-1H-imidazol-4-yl)-6-methylpyridine-2-yl)amino)-5-azaspiro[2.4]hept-5-yl)propan-1-one], on MC4R, the IC50 amounted to 1.59 nM.

The compound `COc1cc([C@@H](C)C(=O)N2C[C@@H](Nc3ccc(-c4cn(C)c(C(C)(C)O)n4)c(C)n3)C3(CC3)C2)c(Cl)cn1` [Compound 182, (R)-2-(5-chloro-2-methoxypyridine-4-yl)-1-((S)-7-((5-(2-(2-hydroxypropan-2-yl)-1-methyl-1H-imidazol-4-yl)-6-methylpyridine-2-yl)amino)-5-azaspiro[2.4]hept-5-yl)propan-1-one] had an IC50 on MC4R of 0.86 nM.

In the case of `COc1cc([C@@H](C)C(=O)N2C[C@@H](Nc3ccc(-c4cn(C)c(OC)n4)c(C)n3)C3(CC3)C2)c(Cl)cn1` [Compound 184, (R)-2-(5-chloro-2-methoxypyridine-4-yl)-1-((S)-7-((5-(2-methoxy-1-methyl-1H-imidazol-4-yl)-6-methylpyridine-2-yl)amino)-5-azaspiro[2.4]hept-5-yl)propan-1-one], at MC4R, the concentration for half-maximal inhibition (IC50) was found to be 1.49 nM.

On to `COc1cc([C@@H](C)C(=O)N2C[C@@H](Nc3ccc(-c4cn(C)c(OC(F)F)n4)c(C)n3)C3(CC3)C2)c(Cl)cn1` [Compound 186, (R)-2-(5-chloro-2-methoxypyridine-4-yl)-1-((S)-7-((5-(2-(difluoromethoxy)-1-methyl-1H-imidazol-4-yl)-6-methylpyridine-2-yl)amino)-5-azaspiro[2.4]hept-5-yl)propan-1-one], for which the IC50 on MC4R was found to be 0.55 nM.

Compound `COc1cc([C@@H](C)C(=O)N2C[C@@H](Nc3ccc(-c4cn5c(n4)CCC5)c(C)n3)C3(CC3)C2)c(F)cn1` [Compound 187, (R)-1-((S)-7-((5-(6,7-dihydro-5H-pyrrolo[1,2-a]imidazol-2-yl)-6-methylpyridine-2-yl)amino)-5-azaspiro[2.4]hept-5-yl)-2-(S-fluoro-2-methoxypyridine-4-yl)propan-1-one] gave an IC50 at MC4R of 3.42 nM.

In turn, `COc1cc([C@@H](C)C(=O)N2C[C@@H](Nc3ccc(-c4cn5c(n4)CCC5)c(C)n3)C3(CC3)C2)c(Cl)cn1` [Compound 188, (R)-2-(5-chloro-2-methoxypyridine-4-yl)-1-((S)-7-((5-(6,7-dihydro-5H-pyrrolo[1,2-a]imidazol-2-yl)-6-methylpyridine-2-yl)amino)-5-azaspiro[2.4]hept-5-yl)propan-1-one] had an IC50 on MC4R of 2.11 nM.

The compound `COc1cc([C@@H](C)C(=O)N2C[C@@H](Nc3ccc(-c4cn5c(n4)C(F)(F)CC5)c(C)n3)C3(CC3)C2)c(F)cn1` [Compound 189, (R)-1-((S)-7-((5-(7,7-difluoro-6,7-dihydro-5H-pyrrolo[1,2-a]imidazol-2-yl)-6-methylpyridine-2-yl)amino)-5-azaspiro[2.4]hept-5-yl)-2-(5-fluoro-2-methoxypyridine-4-yl)propan-1-one] gave an IC50 at MC4R of 2.25 nM.

Turning to `COc1cc([C@@H](C)C(=O)N2C[C@@H](Nc3ccc(-c4cn5c(n4)C(F)(F)CC5)c(C)n3)C3(CC3)C2)c(Cl)cn1` [Compound 190, (R)-2-(5-chloro-2-methoxypyridine-4-yl)-1-((S)-7-((5-(7,7-difluoro-6,7-dihydro-5H-pyrrolo[1,2-a]imidazol-2-yl)-6-methylpyridine-2-yl)amino)-5-azaspiro[2.4]hept-5-yl)propan-1-one], the half-inhibitory concentration (IC50) on MC4R was found to be 1.1 nM.

Turning to `COc1cc([C@@H](C)C(=O)N2CC[C@H](Nc3ccc(-c4cn(C)nn4)c(C)n3)C2)c(Cl)cn1` [Compound 195, (R)-2-(5-chloro-2-methoxypyridine-4-yl)-1-((S)-3-((6-methyl-5-(1-methyl-1H-1,2,3-triazol-4-yl)pyridine-2-yl)amino)pyrrolidine-1-yl)propan-1-one], the concentration for half-maximal inhibition (IC50) at MC4R came out at 0.99 nM.

For `COc1cc([C@@H](C)C(=O)N2C[C@@H](Nc3ccc(-c4cn(C(F)F)nn4)c(C)n3)C3(CC3)C2)c(Cl)cn1` [Compound 196, (R)-2-(5-chloro-2-methoxypyridine-4-yl)-1-((S)-7-((S-(1-(difluoromethyl)-1H-1,2,3-triazol-4-yl)-6-methylpyridine-2-yl)amino)-5-azaspiro[2.4]hept-5-yl)propan-1-one], the IC50 at MC4R was 4.88 nM.

Take `COc1cc([C@@H](C)C(=O)N2C[C@@H](C)[C@H](Nc3ccc(-c4ncccn4)c(C)n3)C2)c(Cl)cn1` [Compound 198, (R)-2-(5-chloro-2-methoxypyridine-4-yl)-1-((3R,4S)-3-methyl-4-((6-methyl-5-(pyrimidine-2-yl)pyridine-2-yl)amino)pyrrolidine-1-yl)propan-1-one]: the IC50 on MC4R was found to be 4.9 nM.

`COc1cc([C@@H](C)C(=O)N2C[C@@H](Nc3ccc(-c4ncccn4)c(C)n3)C(C)(C)C2)c(Cl)cn1` [Compound 199, (R)-2-(5-chloro-2-methoxypyridine-4-yl)-1-((S)-3,3-dimethyl-4-((6-methyl-5-(pyrimidine-2-yl)pyridine-2-yl)amino)pyrrolidine-1-yl)propan-1-one]: the IC50 on MC4R was 366 nM.
